For 11 molecules, TGI and GI50 results are on record in PubChem BioAssay (NCI).

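A five-concentration, 48-hour dose response in 96-well plates underlies each endpoint, interpolated linearly between surrounding concentrations. GI50 = concentration required for 50% inhibition of growth. TGI: concentration producing complete growth inhibition.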

Some test systems named below: NCI-H226 lung; 786-0 renal; ACHN renal; IGROV1 ovarian; SF-268 CNS; SK-MEL-28 melanoma; SNB-75 CNS; OVCAR-4 ovarian; HT29 colon; LOX IMVI melanoma.
What all share (experiment): inhibition of tumour cell growth, NCI panel, 48 h

Regarding `CCON=C1C(C)(C)C(C)(C)C(C)(C)C1(C)C`, the TGI with NCI-H226 lung, with 786-0 renal, in the test on ACHN renal, with IGROV1 ovarian, in the test with SF-268 CNS and with SK-MEL-28 melanoma was > 100 µM in each case. The TGI in the test with SNB-75 CNS, in the test with OVCAR-4 ovarian, with HT29 colon and in the test on LOX IMVI melanoma was > 100 µM in each case.

Turning to `CCCCCCCCCCCCCCCC(=O)OCC1OC(n2cnc3c(=S)nc(N)[nH]c32)C(OC(=O)CCCCCCCCCCCCCCC)C1OC(=O)CCCCCCCCCCCCCCC` (stereo not given), the GI50 is 8.59 µM with NCI-H226 lung; 2460 nM in the test on 786-0 renal; 11.8 µM in the test on ACHN renal; 22700 nM in the test on IGROV1 ovarian; 7.9 µM in the test on SF-268 CNS; > 39000 nM in the test on SK-MEL-28 melanoma. Moreover, the GI50 was 4380 nM in the test with SNB-75 CNS, > 19500 nM with OVCAR-4 ovarian, 3220 nM in the test with HT29 colon and 1540 nM with LOX IMVI melanoma. The TGI in the test with NCI-H226 lung, with 786-0 renal, with ACHN renal, in the test on IGROV1 ovarian, with SF-268 CNS and with SK-MEL-28 melanoma was > 50 µM throughout. Further, the TGI in the test with SNB-75 CNS, with OVCAR-4 ovarian, in the test on HT29 colon and with LOX IMVI melanoma was > 50 µM each time.

Consider `C[C@@H]1COCCN1c1nc(-c2cnc(N)cc2C(F)F)nc(N2[C@H](C)COC[C@@H]2C)n1`, for which the GI50 with NCI-H226 lung is 0.2 µM; with 786-0 renal it was 272 nM; with ACHN renal it was 0.265 µM; with IGROV1 ovarian, 84.5 nM; in the test with SF-268 CNS, 0.356 µM; in the test on SK-MEL-28 melanoma it was 255 nM. Further, the GI50 in the test on SNB-75 CNS is 68.2 nM; in the test on OVCAR-4 ovarian it was 278 nM; in the test on HT29 colon, 349 nM; in the test on LOX IMVI melanoma, 206 nM. The TGI in the test with NCI-H226 lung amounted to 11.2 µM; with 786-0 renal, 12.5 µM; in the test on ACHN renal, 11.8 µM; in the test with IGROV1 ovarian it was 1.77 µM; with SF-268 CNS it was 16.1 µM; in the test on SK-MEL-28 melanoma, 11.7 µM. In addition, the TGI in the test with SNB-75 CNS was found to be 0.571 µM; in the test with OVCAR-4 ovarian, 11.9 µM; with HT29 colon it was 12.9 µM; with LOX IMVI melanoma, 11.3 µM.

`CCCCCCOc1ccc(/C=N/NC(N)=S)cc1`: the GI50 in the test on NCI-H226 lung is 3.65 µM; in the test on 786-0 renal, 1740 nM; with ACHN renal, 5.89 µM; with IGROV1 ovarian, 922 nM; in the test with SF-268 CNS, 3.31 µM; in the test on SK-MEL-28 melanoma, 10900 nM. The GI50 was 4740 nM with SNB-75 CNS, 3120 nM with OVCAR-4 ovarian, 3210 nM with HT29 colon and 3780 nM in the test with LOX IMVI melanoma. The TGI in the test with NCI-H226 lung was 16.5 µM; in the test with 786-0 renal, 6.05 µM; with ACHN renal, > 100 µM; with IGROV1 ovarian, 5.36 µM; in the test with SF-268 CNS, 41.8 µM; in the test on SK-MEL-28 melanoma it was 38.4 µM. The TGI in the test on SNB-75 CNS was 25.6 µM; with OVCAR-4 ovarian, 35 µM; in the test on HT29 colon it was > 100 µM; in the test on LOX IMVI melanoma it was 21.1 µM.

For `O=c1[nH]cnc2c1nnn2C1OC(CO)C(O)C1O` (stereo not given), the GI50 with NCI-H226 lung is 4.88 µM; in the test on 786-0 renal, 2580 nM; in the test on ACHN renal it was 1.04 µM; in the test on IGROV1 ovarian, 1270 nM; in the test on SF-268 CNS, 6.81 µM; in the test on SK-MEL-28 melanoma, 16700 nM. Moreover, the GI50 in the test on SNB-75 CNS is 2430 nM; with OVCAR-4 ovarian, 416 nM; in the test on HT29 colon, 2150 nM; with LOX IMVI melanoma it was 779 nM. The TGI is > 100 µM in the test on NCI-H226 lung; > 100 µM in the test on 786-0 renal; > 100 µM with ACHN renal; > 57.7 µM in the test on IGROV1 ovarian; > 100 µM in the test with SF-268 CNS; > 100 µM with SK-MEL-28 melanoma. Also, the TGI in the test on SNB-75 CNS is > 100 µM; in the test with OVCAR-4 ovarian it was 37.6 µM; in the test with HT29 colon, > 100 µM; with LOX IMVI melanoma it was > 100 µM.

Consider `C=C1C(=O)O[C@H]2[C@H]1CC/C(CNC(=O)/C=C/c1cccc(OC)c1)=C\CC[C@@]1(C)O[C@@H]21`, for which the GI50 was 1.82 µM in the test with NCI-H226 lung; 1540 nM in the test on 786-0 renal; 1.14 µM with ACHN renal; 1960 nM in the test with IGROV1 ovarian; 2.29 µM in the test on SF-268 CNS; 1740 nM in the test on SK-MEL-28 melanoma. Besides, the GI50 with SNB-75 CNS was 1820 nM; in the test with OVCAR-4 ovarian it was 1690 nM; in the test on HT29 colon, 1220 nM; with LOX IMVI melanoma it was 1280 nM. Also, the TGI stood at 4.84 µM with NCI-H226 lung; 3.58 µM in the test on 786-0 renal; 2.67 µM in the test on ACHN renal; 5.3 µM in the test with IGROV1 ovarian; 6.69 µM in the test on SF-268 CNS; 4.23 µM in the test with SK-MEL-28 melanoma. Further, the TGI worked out at 8.09 µM with SNB-75 CNS, 4.79 µM in the test on OVCAR-4 ovarian, 2.81 µM in the test on HT29 colon and 2.63 µM in the test with LOX IMVI melanoma.

Consider `CC(=N\O)/C(C)=N/O.CC(=N\O)/C(C)=N/O.CC(=N\O)/C(C)=N/O.CC(=N\O)/C(C)=N/O.[Cu].[Cu]`, for which the GI50 is 23.5 µM with NCI-H226 lung; 19800 nM with 786-0 renal; 18.7 µM in the test on ACHN renal; 23800 nM in the test on IGROV1 ovarian; 19.8 µM in the test on SF-268 CNS; 18800 nM with SK-MEL-28 melanoma. In addition, the GI50 in the test with SNB-75 CNS was 17100 nM; with OVCAR-4 ovarian, 20400 nM; in the test with HT29 colon, 17700 nM; in the test on LOX IMVI melanoma, 19000 nM. In addition, the TGI in the test on NCI-H226 lung was determined as 39.2 µM; in the test with 786-0 renal, 36.8 µM; in the test on ACHN renal, 32.7 µM; in the test on IGROV1 ovarian, 56.2 µM; with SF-268 CNS it was 34.6 µM; in the test on SK-MEL-28 melanoma it was 35.4 µM. Further, the TGI with SNB-75 CNS worked out at 31.8 µM; with OVCAR-4 ovarian it was 35.9 µM; in the test on HT29 colon, 35.4 µM; with LOX IMVI melanoma, 35.3 µM.

As to `CN(C)c1ccc(C(=O)c2ccc(N(C)C)c(N)c2)cc1N`, the GI50 is 16.8 µM in the test with NCI-H226 lung; 9740 nM with 786-0 renal; 14.8 µM in the test on ACHN renal; 1860 nM in the test on IGROV1 ovarian; 10.2 µM in the test on SF-268 CNS; 12800 nM in the test with SK-MEL-28 melanoma. The GI50 with SNB-75 CNS is 1050 nM; in the test with OVCAR-4 ovarian it was 6260 nM; in the test with HT29 colon, 1140 nM; in the test on LOX IMVI melanoma, 7750 nM. The TGI in the test with NCI-H226 lung was > 82.5 µM; in the test with 786-0 renal, > 91.5 µM; with ACHN renal it was > 100 µM; with IGROV1 ovarian it was > 42.5 µM; in the test with SF-268 CNS, > 100 µM; in the test with SK-MEL-28 melanoma, > 100 µM. For the same molecule, the TGI in the test with SNB-75 CNS was > 23.6 µM; in the test with OVCAR-4 ovarian, > 100 µM; in the test with HT29 colon, 19.2 µM; in the test with LOX IMVI melanoma it was > 100 µM.

Turning to `CN(C)C(=S)NN=C(c1ccccn1)c1ccccn1`, the GI50 with NCI-H226 lung is 0.0445 µM; with 786-0 renal, < 23.2 nM; in the test on ACHN renal, < 0.0108 µM; in the test with IGROV1 ovarian it was < 10 nM; in the test with SF-268 CNS it was < 0.0362 µM; in the test on SK-MEL-28 melanoma, 131 nM. Further, the GI50 with SNB-75 CNS is 14300 nM; with OVCAR-4 ovarian, < 10 nM; in the test on HT29 colon, < 10 nM; with LOX IMVI melanoma, < 10 nM. Further, the TGI in the test with NCI-H226 lung is 12.7 µM; with 786-0 renal, 1.26 µM; with ACHN renal, 10.7 µM; with IGROV1 ovarian, 21.8 µM; in the test with SF-268 CNS, > 43.4 µM; in the test on SK-MEL-28 melanoma, 18.2 µM. For the same molecule, the TGI in the test on SNB-75 CNS is > 81.6 µM; with OVCAR-4 ovarian it was > 83.1 µM; in the test with HT29 colon, > 100 µM; in the test on LOX IMVI melanoma it was 11.5 µM.

On to `CCOC(=O)c1cc2c(n1Cc1cc(OC)cc(OC)c1)-c1oncc1CCC2`, for which the GI50 in the test on NCI-H226 lung was 23 µM; in the test on 786-0 renal, 104 nM; with ACHN renal, 0.0674 µM; with IGROV1 ovarian it was 73.2 nM; with SF-268 CNS it was 0.243 µM; in the test on SK-MEL-28 melanoma, 143 nM. In addition, the GI50 in the test with SNB-75 CNS is 27.6 nM; with OVCAR-4 ovarian, 1770 nM; in the test on HT29 colon it was 49.9 nM; with LOX IMVI melanoma, 119 nM. The TGI in the test on NCI-H226 lung, in the test on 786-0 renal, with ACHN renal, in the test with IGROV1 ovarian, in the test on SF-268 CNS and in the test on SK-MEL-28 melanoma was > 100 µM in each case. The TGI in the test on SNB-75 CNS was > 100 µM; with OVCAR-4 ovarian, > 100 µM; in the test on HT29 colon, 20.1 µM; with LOX IMVI melanoma, > 100 µM.

As for `COc1cc2c(c(OC)c1OC)-c1ccc(NNC(=S)N(Cc3cccc(C[N+](Cc4cccc(CNC56CC7CC(CC(C7)C5)C6)c4)(Cc4cccc(CNC56CC7CC(CC(C7)C5)C6)c4)Cc4cccc(CN(C(=S)NNc5ccc6c(cc5=O)[C@@H](NC(C)=O)CCc5cc(OC)c(OC)c(OC)c5-6)C56CC7CC(CC(C7)C5)C6)c4)c3)C34CC5CC(CC(C5)C3)C4)c(=O)cc1[C@@H](NC(C)=O)CC2` (stereo not given in full), the GI50 is 1.96 µM in the test with NCI-H226 lung; 1300 nM with 786-0 renal; 3.68 µM in the test with ACHN renal; 1450 nM in the test on IGROV1 ovarian; 1.37 µM in the test on SF-268 CNS; 1020 nM with SK-MEL-28 melanoma. In addition, the GI50 with SNB-75 CNS was 1400 nM; with OVCAR-4 ovarian it was 2170 nM; in the test with HT29 colon it was 958 nM; with LOX IMVI melanoma, 873 nM. Further, the TGI in the test with NCI-H226 lung is 9.97 µM; in the test on 786-0 renal, 5.28 µM; with ACHN renal, 7.99 µM; in the test on IGROV1 ovarian it was 5.95 µM; in the test on SF-268 CNS, 6.54 µM; in the test with SK-MEL-28 melanoma, 4.07 µM. In addition, the TGI in the test with SNB-75 CNS was found to be 6.68 µM; with OVCAR-4 ovarian, 8.94 µM; in the test with HT29 colon it was 2.81 µM; in the test on LOX IMVI melanoma it was 2.86 µM.
